Data from ChEMBL document CHEMBL3414499, “Characterization of two distinct structural classes of selective aldehyde dehydrogenase 1A1 inhibitors” (J Med Chem, 2015).

Target: T1, Aldehyde dehydrogenase, dimeric NADP-preferring (Homo sapiens, UniProt P30838)
T1 sequence (P30838 whole entry): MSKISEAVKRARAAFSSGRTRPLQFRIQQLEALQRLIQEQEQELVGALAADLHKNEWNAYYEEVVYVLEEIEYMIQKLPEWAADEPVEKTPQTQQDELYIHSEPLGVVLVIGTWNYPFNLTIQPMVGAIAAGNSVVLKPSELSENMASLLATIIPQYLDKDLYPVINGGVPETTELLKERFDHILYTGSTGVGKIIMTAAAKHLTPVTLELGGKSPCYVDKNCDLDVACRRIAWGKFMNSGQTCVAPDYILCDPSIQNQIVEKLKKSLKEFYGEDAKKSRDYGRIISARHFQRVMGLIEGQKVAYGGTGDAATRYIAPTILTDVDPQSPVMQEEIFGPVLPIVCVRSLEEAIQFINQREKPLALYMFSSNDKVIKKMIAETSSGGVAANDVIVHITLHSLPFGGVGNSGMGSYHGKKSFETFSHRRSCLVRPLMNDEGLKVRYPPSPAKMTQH
Experiment: Inhibition of recombinant human ALDH3A1 using benzaldehyde as substrate preincubated for 2 mins with NAD+ followed by substrate addition by UV-Vis spectrophotometric analysis

IC50: > 100 µM
Compound: Cn1c(=O)c2c(nc(SCC(N)=O)n2Cc2ccccc2F)n(C)c1=O
